Measured values as given in ChEMBL document CHEMBL1141918 (Bioorg Med Chem Lett, 2005).
pKi: −log10 of the molar value.

Columns and labels:
[1] = molecular target: Carbonic anhydrase 4 (Homo sapiens, UniProt P22748)
[2] = molecular target: Carbonic anhydrase 9 (Homo sapiens, UniProt Q16790)
[3] = molecular target: Carbonic anhydrase 5A, mitochondrial (Homo sapiens, UniProt P35218)
[4] = molecular target: Carbonic anhydrase 2 (Homo sapiens, UniProt P00918)
[5] = molecular target: Carbonic anhydrase 1 (Homo sapiens, UniProt P00915)
Chain of Carbonic anhydrase 1 (P00915 whole entry): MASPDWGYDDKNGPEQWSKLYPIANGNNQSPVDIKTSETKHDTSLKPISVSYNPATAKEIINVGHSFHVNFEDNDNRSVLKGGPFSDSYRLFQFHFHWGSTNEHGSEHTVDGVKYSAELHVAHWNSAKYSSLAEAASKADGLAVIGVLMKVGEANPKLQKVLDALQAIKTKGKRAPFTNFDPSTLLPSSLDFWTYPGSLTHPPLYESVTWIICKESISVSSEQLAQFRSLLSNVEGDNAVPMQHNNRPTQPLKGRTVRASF

Chain of Carbonic anhydrase 4 (P22748 whole entry): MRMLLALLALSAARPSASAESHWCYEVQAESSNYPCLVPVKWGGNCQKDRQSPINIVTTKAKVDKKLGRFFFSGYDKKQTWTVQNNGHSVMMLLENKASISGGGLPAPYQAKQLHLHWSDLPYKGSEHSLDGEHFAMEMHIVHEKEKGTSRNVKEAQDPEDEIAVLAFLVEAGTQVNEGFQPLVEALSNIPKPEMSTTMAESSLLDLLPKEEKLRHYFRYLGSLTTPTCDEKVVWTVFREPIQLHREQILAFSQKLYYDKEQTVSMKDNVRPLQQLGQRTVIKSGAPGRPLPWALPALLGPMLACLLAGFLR
Chain of Carbonic anhydrase 5A, mitochondrial (P35218 whole entry): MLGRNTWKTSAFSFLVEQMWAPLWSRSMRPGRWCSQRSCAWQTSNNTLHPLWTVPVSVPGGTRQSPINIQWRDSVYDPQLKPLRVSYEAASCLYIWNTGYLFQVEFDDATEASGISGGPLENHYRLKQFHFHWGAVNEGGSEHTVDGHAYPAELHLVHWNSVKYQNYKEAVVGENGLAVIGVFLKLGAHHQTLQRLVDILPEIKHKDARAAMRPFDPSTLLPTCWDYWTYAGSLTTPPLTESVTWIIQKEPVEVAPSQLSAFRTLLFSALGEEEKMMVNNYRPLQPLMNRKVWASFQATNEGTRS

F[P-](F)(F)(F)(F)F.[Na+] was tested, and the pKi [1] was 1.72, the pKi [2] was 2.09 and the pKi [3] was less than 0.52. It also gave a pKi [4] of 1.76 and a pKi [5] of 1.96.
